# Laboratory results reported in patent publication US20250179073A1, “TRICYCLIC HETEROCYCLE COMPOUNDS AS IAP ANTAGONISTS” (Ascentage Pharma (Suzhou) Co., Ltd., priority 2022, published 2025).
# Tested on: MDA-MB-231 cells
# Assay: Cell proliferation assay (CellTiter-Glo), MDA-MB-231
# Assay type: cell-based
# Details: Homo sapiens, MDA-MB-231, 72 h, 72 h treatment, Celltiter-Glo luminescence
# Method: Example 238: Cell Proliferation Assay
# MDA-MB-231 and EVSA-T cells (10000 cells/well) were plated onto 96-well plates (Corning, Cat #3917) in 95 μL of medium (RPMI-1640 containing 10% FBS and MEM containing 10% FBS, respectively). Compounds with various concentrations ([…]) were added to the wells. After treatment for 72 h, 30 μL of Celltiter-Glo reagent (Promega, Cat #G7573) was added and incubated at room temperature for 15 min, then the luminescent signal was determined using a microplate reader (Biotek, SynergyH1). The inhibitor dose-response curves were analyzed using normalized IC50 regression curve fitting with control based normalization.
row,Compound,IC50 [nM]
1,"Cc1nc(CO)c2c(Cc3ccc(F)cc3)cc3c(n12)C(C)(C)CN3C(=O)CN1C[C@@H](C)NC[C@@H]1CN1CCOC[C@H]1C [Compound 125, 1-(4-(4-fluorobenzyl)-3-(hydroxymethyl)-1,8,8-trimethyl-7,8-dihydro-6H-imidazo[1,5-a]pyrrolo[2,3-e]pyridin-6-yl)-2-((2R,5R)-5-methyl-2-(((R)-3-methylmorpholino)methyl)piperazin-1-yl)ethan-1-one]",200
2,"C[C@@H]1CN(CC(=O)N2CC(C)(C)c3c2cc(Cn2ccc(F)cc2=O)c2ncnn32)[C@@H](CN2CCOC[C@H]2C)CN1 [Compound 151, 1-((8,8-dimethyl-6-(2-((2R,5R)-5-methyl-2-(((R)-3-methylmorpholino)methyl)piperazin-1-yl)acetyl)-7,8-dihydro-6H-pyrrolo[2,3-e][1,2,4]triazolo[1,5-a]pyridin-4-yl)methyl)-4-fluoropyridin-2(1H)-one]",3800
3,"C[C@@H]1CN(CC(=O)N2CC(C)(C)c3c2cc(Cc2ccc(F)cc2)c2cnc(C4CCOCC4)n32)[C@@H](CN2CCOC[C@H]2C)CN1 [Example 7, 1-(4-(4-fluorobenzyl)-8,8-dimethyl-1-(tetrahydro-2H-pyran-4-yl)-7,8-dihydro-6H-imidazo[1,5-a]pyrrolo[2,3-e]pyridin-6-yl)-2-((2R,5R)-5-methyl-2-(((R)-3-methylmorpholino)methyl)piperazin-1-yl)ethan-1-one]",140
4,"C[C@@H]1CN(CC(=O)N2CC(C)(C)c3c2cc(Cc2ccc(F)cc2F)c2nn(CC(C)(C)O)c(=O)n32)[C@@H](CN2CCOC[C@H]2C)CN1 [Compound 274, 4-(2,4-difluorobenzyl)-2-(2-hydroxy-2-methylpropyl)-8,8-dimethyl-6-(2-((2R,5R)-5-methyl-2-(((R)-3-methylmorpholino)methyl)piperazin-1-yl)acetyl)-2,6,7,8-tetrahydro-1H-pyrrolo[2,3-e][1,2,4]triazolo[4,3-a]pyridin-1-one]",9
5,"C[C@@H]1CN(CC(=O)N2CC(C)(C)c3c2cc(Cc2ccc(F)cc2)c2nn(CC(C)(C)O)c(=O)n32)[C@@H](CN2C[C@@H]3C[C@H]2CO3)CN1 [Compound 283, 6-(2-((2R,5R)-2-(((1S,4S)-2-oxa-5-azabicyclo[2.2.1]heptan-5-yl)methyl)-5-methylpiperazin-1-yl)acetyl)-4-(4-fluorobenzyl)-2-(2-hydroxy-2-methylpropyl)-8,8-dimethyl-2,6,7,8-tetrahydro-1H-pyrrolo[2,3-e][1,2,4]triazolo[4,3-a]pyridin-1-one]",360
6,"C[C@@H]1CN(CC(=O)N2CC(C)(C)c3c2cc(Cc2ccc(F)cc2)c2nn(Cc4cccnn4)c(=O)n32)[C@@H](CN2CCOC[C@H]2C)CN1 [Compound 253, 4-(4-fluorobenzyl)-8,8-dimethyl-6-(2-((2R,5R)-5-methyl-2-(((R)-3-methylmorpholino)methyl)piperazin-1-yl)acetyl)-2-(pyridazin-3-ylmethyl)-2,6,7,8-tetrahydro-1H-pyrrolo[2,3-e][1,2,4]triazolo[4,3-a]pyridin-1-one]",230
7,"CC(C)c1ncc2c(Cc3ccc(F)cc3)cc3c(n12)C(C)(C)CN3C(=O)CN1C[C@@H](C)NC[C@@H]1CN1CCOC[C@H]1C [Example 5, 1-(4-(4-fluorobenzyl)-1-isopropyl-8,8-dimethyl-7,8-dihydro-6H-imidazo[1,5-a]pyrrolo[2,3-e]pyridin-6-yl)-2-((2R,5R)-5-methyl-2-(((R)-3-methylmorpholino)methyl)piperazin-1-yl)ethan-1-one]",160
8,"C[C@@H]1CN(CC(=O)N2CC(C)(C)c3c2cc(Sc2ccc(F)cn2)c2ncnn32)[C@@H](CN2CCOC[C@H]2C)CN1 [Compound 211, 1-(4-((5-fluoropyridin-2-yl)thio)-8,8-dimethyl-7,8-dihydro-6H-pyrrolo[2,3-e][1,2,4]triazolo[1,5-a]pyridin-6-yl)-2-((2R,5R)-5-methyl-2-(((R)-3-methylmorpholino)methyl)piperazin-1-yl)ethan-1-one]",150
9,"C[C@@H]1CN(CC(=O)N2CC(C)(C)c3c2cc(Cc2ccc(F)cc2)c2c(Cl)cnn32)[C@@H](CN2CCOC[C@H]2C)CN1 [Compound 106, 1-(3-chloro-4-(4-fluorobenzyl)-8,8-dimethyl-7,8-dihydro-6H-pyrazolo[1,5-a]pyrrolo[2,3-e]pyridin-6-yl)-2-((2R,5R)-5-methyl-2-(((R)-3-methylmorpholino)methyl)piperazin-1-yl)ethan-1-one]",390
10,"C[C@@H]1CN(CC(=O)N2CC(C)(C)c3c2cc(Cc2ccc(F)cc2)c2nc(C(F)(F)F)cn32)[C@@H](CN2CCOCC2(C)C)CN1 [Compound 146, 2-((2R,5R)-2-((3,3-dimethylmorpholino)methyl)-5-methylpiperazin-1-yl)-1-(4-(4-fluorobenzyl)-8,8-dimethyl-2-(trifluoromethyl)-7,8-dihydro-6H-imidazo[1,2-a]pyrrolo[2,3-e]pyridin-6-yl)ethan-1-one]",270
11,"C[C@@H]1CN(CC(=O)N2CC(C)(C)c3c2cc(Cc2ccc(F)cc2)c2nc(N(S(C)(=O)=O)S(C)(=O)=O)nn32)[C@@H](CN2CCOC[C@H]2C)CN1 [Example 16, N-(4-(4-fluorobenzyl)-8,8-dimethyl-6-(2-((2R,5R)-5-methyl-2-(((R)-3-methylmorpholino)methyl)piperazin-1-yl)acetyl)-7,8-dihydro-6H-pyrrolo[2,3-e][1,2,4]triazolo[1,5-a]pyridin-2-yl)-N-(methylsulfonyl)methanesulfonamide]",6260
12,"C[C@@H]1CN(CC(=O)N2CC(C)(C)c3c2cc(C(O)c2ccc(F)cc2F)c2ncnn32)[C@@H](CN2CCOC[C@H]2C)CN1 (stereo partly drawn) [Compound 50, 1-(4-((2,4-difluorophenyl)(hydroxy)methyl)-8,8-dimethyl-7,8-dihydro-6H-pyrrolo[2,3-e][1,2,4]triazolo[1,5-a]pyridin-6-yl)-2-((2R,5R)-5-methyl-2-(((R)-3-methylmorpholino)methyl)piperazin-1-yl)ethan-1-one]",> 10000
13,"C[C@@H]1CN(CC(=O)N2CC(C)(C)c3c2cc(Cc2ccc(F)cc2)c2nn(C(CO)CO)c(=O)n32)[C@@H](CN2CCOC[C@H]2C)CN1 [Compound 268, 2-(1,3-dihydroxypropan-2-yl)-4-(4-fluorobenzyl)-8,8-dimethyl-6-(2-((2R,5R)-5-methyl-2-(((R)-3-methylmorpholino)methyl)piperazin-1-yl)acetyl)-2,6,7,8-tetrahydro-1H-pyrrolo[2,3-e][1,2,4]triazolo[4,3-a]pyridin-1-one]",350
14,"CC(C)c1nc2c(Cc3ccc(F)cc3)cc3c(n2n1)C(C)(C)CN3C(=O)CN1C[C@@H](C)NC[C@@H]1CN1CCOC[C@H]1C [Compound 171, 1-(4-(4-fluorobenzyl)-2-isopropyl-8,8-dimethyl-7,8-dihydro-6H-pyrrolo[2,3-e][1,2,4]triazolo[1,5-a]pyridin-6-yl)-2-((2R,5R)-5-methyl-2-(((R)-3-methylmorpholino)methyl)piperazin-1-yl)ethan-1-one]",95
15,"CCOC(=O)c1cnn2c3c(cc(Cc4ccc(F)cc4)c12)N(C(=O)CN1C[C@@H](C)NC[C@@H]1CN1CCOC[C@H]1C)CC3(C)C [Compound 120, ethyl 4-(4-fluorobenzyl)-8,8-dimethyl-6-(2-((2R,5R)-5-methyl-2-(((R)-3-methylmorpholino)methyl)piperazin-1-yl)acetyl)-7,8-dihydro-6H-pyrazolo[1,5-a]pyrrolo[2,3-e]pyridine-3-carboxylate]",400
16,"C[C@@H]1CN(CC(=O)N2CC(C)(C)c3c2cc(N2CCNc4cc(F)ccc42)c2ncnn32)[C@@H](CN2CCOC[C@H]2C)CN1 [Compound 198, 1-(4-(6-fluoro-3,4-dihydroquinoxalin-1(2H)-yl)-8,8-dimethyl-7,8-dihydro-6H-pyrrolo[2,3-e][1,2,4]triazolo[1,5-a]pyridin-6-yl)-2-((2R,5R)-5-methyl-2-(((R)-3-methylmorpholino)methyl)piperazin-1-yl)ethan-1-one]",1000
17,"C[C@@H]1CN(CC(=O)N2CC(C)(C)c3c2cc(Sc2ccc(F)cc2N)c2ncnn32)[C@@H](CN2CCOC[C@H]2C)CN1 [Compound 216, 1-(4-((2-amino-4-fluorophenyl)thio)-8,8-dimethyl-7,8-dihydro-6H-pyrrolo[2,3-e][1,2,4]triazolo[1,5-a]pyridin-6-yl)-2-((2R,5R)-5-methyl-2-(((R)-3-methylmorpholino)methyl)piperazin-1-yl)ethan-1-one]",280
18,"C[C@@H]1CN(CC(=O)N2CC(C)(C)c3c2cc(Cc2ccc(F)cc2)c2nnc(C(F)F)n32)[C@@H](CN2CCOC[C@H]2C)CN1 [Compound 157, 1-(1-(difluoromethyl)-4-(4-fluorobenzyl)-8,8-dimethyl-7,8-dihydro-6H-pyrrolo[2,3-e][1,2,4]triazolo[4,3-a]pyridin-6-yl)-2-((2R,5R)-5-methyl-2-(((R)-3-methylmorpholino)methyl)piperazin-1-yl)ethan-1-one]",200
19,"C[C@@H]1CN(CC(=O)N2CC(C)(C)c3c2cc(Cc2ccc(F)cc2)c2nnc(N)n32)[C@@H](CN2CCOC[C@H]2C)CN1 [Compound 136, 1-(1-amino-4-(4-fluorobenzyl)-8,8-dimethyl-7,8-dihydro-6H-pyrrolo[2,3-e][1,2,4]triazolo[4,3-a]pyridin-6-yl)-2-((2R,5R)-5-methyl-2-(((R)-3-methylmorpholino)methyl)piperazin-1-yl)ethan-1-one]",1390
20,"[2H]C([2H])([2H])NC(=O)c1nc2c(Cc3ccc(F)cc3)cc3c(n2n1)C(C)(C)CN3C(=O)CN1C[C@@H](C)NC[C@@H]1CN1CCOC[C@H]1C [Compound 258, 4-(4-fluorobenzyl)-8,8-dimethyl-N-(methyl-d3)-6-(2-((2R,5R)-5-methyl-2-(((R)-3-methylmorpholino)methyl)piperazin-1-yl)acetyl)-7,8-dihydro-6H-pyrrolo[2,3-e][1,2,4]triazolo[1,5-a]pyridine-2-carboxamide]",195
